pIC50: −log10 of the molar value.
The molecules below were run on DOHH2 cells (assay: Cell proliferation assay (MTS) in DOHH2 cells, mechanism-based assay for BTK inhibition). Details: Homo sapiens, DOHH-2, 120 h incubation, 5000 cells/well.
Description: Cell Proliferation Assays
MTS testing kit was purchased from Promega. The DMEM, Fetal bovine serum and Penicillin-Streptomycin were purchased from Gibco. Dimethyl sulfoxide (DMSO) was purchased from Sigma.
To investigate whether a compound is able to inhibit the activity of BTK in cells, a mechanism-based assay using DOHH2 (DSMZ catalog#: ACC47) and Mino (ATCC® Number CRL-3000™) cells was developed. In this assay, inhibition of BTK was detected by the inhibition of DOHH2 and Mino cell proliferations. DOHH2 or Mino cells were cultured in culture flasks to 40-80% confluence in RPMI-1640 plus 10% fetal bovine serum. C ells were collected and plated onto 96-well plates at desired cell density (DOHH2: 5000 cells/well; Mino: 10000 cells/well). Plates were incubated overnight at 37° C., with 5% CO2 to adhere. Compounds were added to the plates, and the final compound concentrations were 10000, 3333, 1111, […], 41, 14, 4.6 and 1.5 nM. Plates were placed at 37° C., with 5% CO2 for 120 h (DOHH2) or 72 h (Mino). 20 μl MTS/100 μl medium mixture solution were added to each well and the plates were incubated for exactly 2 hours. The reaction was stopped by adding 25 μl 10% SDS per well.
Select compounds prepared as described above were assayed according to the biological procedures described herein.

`C=CC(=O)N1CCC(c2cn(-c3ccc(Oc4ccccc4)cc3)c3c(N)n[nH]c(=O)c23)C1` (stereo not drawn) [Example 1, 3-(1-acryloylpyrrolidin-3-yl)-7-amino-1-(4-phenoxyphenyl)-1,5-dihydro-4H-pyrrolo[2,3-d]pyridazin-4-one] and `C=CC(=O)N1CC[C@@H](c2cn(-c3ccc(Oc4ccccc4)cc3)c3c(N)n[nH]c(=O)c23)C1` [Example 9, (S)-3-(1-acryloylpyrrolidin-3-yl)-7-amino-1-(4-phenoxyphenyl)-1,5-dihydro-4H-pyrrolo[2,3-d]pyridazin-4-one] are within 0.2 log units of each other in pIC50: 7.44 for the first, 7.49 for the second.

Going from `CC#CC(=O)N1CCC(c2cn(-c3ccc(Oc4ccccc4)cc3)c3c(N)n[nH]c(=O)c23)C1` (stereo not drawn) [Example 2, 7-amino-3-(1-(but-2-ynoyl)pyrrolidin-3-yl)-1-(4-phenoxyphenyl)-1,5-dihydro-4H-pyrrolo[2,3-d]pyridazin-4-one] to `C=CC(=O)N1CC[C@H](c2cn(-c3ccc(Oc4ccccc4)cc3)c3c(N)n[nH]c(=O)c23)C1` [Example 10, (R)-3-(1-acryloylpyrrolidin-3-yl)-7-amino-1-(4-phenoxyphenyl)-1,5-dihydro-4H-pyrrolo[2,3-d]pyridazin-4-one], the pIC50 rises from 6.61 to 7.70 (1.09 log units). The second is the more potent here.

`C=CC(=O)N1CCC(c2cn(-c3ccc(Oc4c(F)cccc4F)cc3)c3c(N)n[nH]c(=O)c23)C1` (stereo not drawn) [Example 3, 3-(1-acryloylpyrrolidin-3-yl)-7-amino-1-(4-(2,6-difluorophenoxy)phenyl)-1,5-dihydro-4H-pyrrolo[2,3-d]pyridazin-4-one] and `C=CC(=O)N1CC[C@@H](c2cn(-c3ccc(Oc4c(F)cccc4F)cc3)c3c(N)n[nH]c(=O)c23)C1` [Example 21] are within 0.2 log units of each other in pIC50: 6.83 for the first, 7.00 for the second.

First: CC#CC(=O)N1CCC(c2cn(-c3ccc(Oc4c(F)cccc4F)cc3)c3c(N)n[nH]c(=O)c23)C1 (stereo not drawn) [Example 4, 7-amino-3-(1-(but-2-ynoyl)pyrrolidin-3-yl)-1-(4-(2,6-difluorophenoxy)phenyl)-1,5-dihydro-4H-pyrrolo[2,3-d]pyridazin-4-one]
Second: C=CC(=O)N1CC[C@H](c2cn(-c3ccc(Oc4c(F)cccc4F)cc3)c3c(N)n[nH]c(=O)c23)C1 [Example 27, (R)-3-(1-acryloylpyrrolidin-3-yl)-7-amino-1-(4-(2,6-difluorophenoxy)phenyl)-1,5-dihydro-4H-pyrrolo[2,3-d]pyridazin-4-one]
The pIC50 of the first is 0.73 log units lower: 6.60 for the first, 7.33 for the second.

Going from `C=CC(=O)N1CCC(c2nn(-c3ccc(Oc4ccccc4)cc3)c3c(N)n[nH]c(=O)c23)C1` (stereo not drawn) [Example 5, 3-(1-acryloylpyrrolidin-3-yl)-7-amino-1-(4-phenoxyphenyl)-1,5-dihydro-4H-pyrazolo[3,4-d]pyridazin-4-one] to `C=CC(=O)N1CC[C@@H](c2nn(-c3ccc(Oc4ccccc4)cc3)c3c(N)n[nH]c(=O)c23)C1` [Example 13, (R)-3-(1-acryloylpyrrolidin-3-yl)-7-amino-1-(4-phenoxyphenyl)-1,5-dihydro-4H-pyrazolo[3,4-d]pyridazin-4-one], the pIC50 falls from 7.60 to 6.97 (0.63 log units). The first is the more potent here.

Going from `CC#CC(=O)N1CCC(c2nn(-c3ccc(Oc4ccccc4)cc3)c3c(N)n[nH]c(=O)c23)C1` (stereo not drawn) [Example 6, 7-amino-3-(1-(but-2-ynoyl)pyrrolidin-3-yl)-1-(4-phenoxyphenyl)-1,5-dihydro-4H-pyrazolo[3,4-d]pyridazin-4-one] to `C=CC(=O)N1CC[C@H](c2nn(-c3ccc(Oc4ccccc4)cc3)c3c(N)n[nH]c(=O)c23)C1` [Example 14, (S)-3-(1-acryloylpyrrolidin-3-yl)-7-amino-1-(4-phenoxyphenyl)-1,5-dihydro-4H-pyrazolo[3,4-d]pyridazin-4-one], the pIC50 rises from 6.75 to 7.30 (0.55 log units).

First: C=CC(=O)N1CCC(c2nn(-c3ccc(Oc4c(F)cccc4F)cc3)c3c(N)n[nH]c(=O)c23)C1 (stereo not drawn) [Example 7, 3-(1-acryloylpyrrolidin-3-yl)-7-amino-1-(4-(2,6-difluorophenoxy)phenyl)-1,5-dihydro-4H-pyrazolo[3,4-d]pyridazin-4-one]
Second: CC#CC(=O)N1CCC(c2nn(-c3ccc(Oc4c(F)cccc4F)cc3)c3c(N)n[nH]c(=O)c23)C1 (stereo not drawn) [Example 8, 7-amino-3-(1-(but-2-ynoyl)pyrrolidin-3-yl)-1-(4-(2,6-difluorophenoxy)phenyl)-1,5-dihydro-4H-pyrazolo[3,4-d]pyridazin-4-one]
The pIC50 of the first is 0.22 log units higher: 6.74 for the first, 6.52 for the second. The first is the more potent here.

First: C=CC(=O)N1CCC[C@@H](c2cn(-c3ccc(Oc4ccccc4)cc3)c3c(N)n[nH]c(=O)c23)C1 [Example 11, (S)-3-(1-acryloylpiperidin-3-yl)-7-amino-1-(4-phenoxyphenyl)-1,5-dihydro-4H-pyrrolo[2,3-d]pyridazin-4-one]
Second: C=CC(=O)N1CCC[C@H](c2cn(-c3ccc(Oc4ccccc4)cc3)c3c(N)n[nH]c(=O)c23)C1 [Example 12, (R)-3-(1-acryloylpiperidin-3-yl)-7-amino-1-(4-phenoxyphenyl)-1,5-dihydro-4H-pyrrolo[2,3-d]pyridazin-4-one]
The pIC50 of the first is 0.27 log units higher: 7.40 for the first, 7.13 for the second. The first is the more potent here.

`C=CC(=O)N1CCC[C@@H](c2nn(-c3ccc(Oc4ccccc4)cc3)c3c(N)n[nH]c(=O)c23)C1` [Example 15, (R)-3-(1-acryloylpiperidin-3-yl)-7-amino-1-(4-phenoxyphenyl)-1,5-dihydro-4H-pyrazolo[3,4-d]pyridazin-4-one] and `C=CC(=O)N1CCC[C@H](c2nn(-c3ccc(Oc4ccccc4)cc3)c3c(N)n[nH]c(=O)c23)C1` [Example 16, (S)-3-(1-acryloylpiperidin-3-yl)-7-amino-1-(4-phenoxyphenyl)-1,5-dihydro-4H-pyrazolo[3,4-d]pyridazin-4-one] are within 0.2 log units of each other in pIC50: 7.40 for the first, 7.43 for the second.

Compared with `C=CC(=O)N1CC[C@@H](c2cn(-c3ccc(Oc4ccccc4F)cc3)c3c(N)n[nH]c(=O)c23)C1` [Example 17, (S)-3-(1-acryloylpyrrolidin-3-yl)-7-amino-1-(4-(2-fluorophenoxy)phenyl)-1,5-dihydro-4H-pyrrolo[2,3-d]pyridazin-4-one], `C=CC(=O)N1CC[C@H](c2cn(-c3ccc(Oc4ccccc4F)cc3)c3c(N)n[nH]c(=O)c23)C1` [Example 23, (R)-3-(1-acryloylpyrrolidin-3-yl)-7-amino-1-(4-(2-fluorophenoxy)phenyl)-1,5-dihydro-4H-pyrrolo[2,3-d]pyridazin-4-one] is 0.30 log units lower in pIC50: 7.68 for the first, 7.38 for the second.

First: C=CC(=O)N1CC[C@@H](c2cn(-c3ccc(Oc4cccc(F)c4)cc3)c3c(N)n[nH]c(=O)c23)C1 [Example 18, (S)-3-(1-acryloylpyrrolidin-3-yl)-7-amino-1-(4-(3-fluorophenoxy)phenyl)-1,5-dihydro-4H-pyrrolo[2,3-d]pyridazin-4-one]
Second: C=CC(=O)N1CC[C@H](c2cn(-c3ccc(Oc4cccc(F)c4)cc3)c3c(N)n[nH]c(=O)c23)C1 [Example 24, (R)-3-(1-acryloylpyrrolidin-3-yl)-7-amino-1-(4-(3-fluorophenoxy)phenyl)-1,5-dihydro-4H-pyrrolo[2,3-d]pyridazin-4-one]
The pIC50 of the first is 0.31 log units higher: 6.74 for the first, 6.43 for the second. The first is the more potent here.

Going from `C=CC(=O)N1CC[C@@H](c2cn(-c3ccc(Oc4cc(F)cc(F)c4)cc3)c3c(N)n[nH]c(=O)c23)C1` [Example 22, (S)-3-(1-acryloylpyrrolidin-3-yl)-7-amino-1-(4-(3,5-difluorophenoxy)phenyl)-1,5-dihydro-4H-pyrrolo[2,3-d]pyridazin-4-one] to `C=CC(=O)N1CCC[C@@H](c2cn(-c3ccc(Oc4cc(F)cc(F)c4)cc3)c3c(N)n[nH]c(=O)c23)C1` [Example 34, (S)-3-(1-acryloylpiperidin-3-yl)-7-amino-1-(4-(3,5-difluorophenoxy)phenyl)-1,5-dihydro-4H-pyrrolo[2,3-d]pyridazin-4-one], the pIC50 rises from 7.07 to 7.38 (0.31 log units). The second is the more potent here.

Going from `C=CC(=O)N1CC[C@H](c2cn(-c3ccc(Oc4cccc(F)c4F)cc3)c3c(N)n[nH]c(=O)c23)C1` [Example 26, (R)-3-(1-acryloylpyrrolidin-3-yl)-7-amino-1-(4-(2,3-difluorophenoxy)phenyl)-1,5-dihydro-4H-pyrrolo[2,3-d]pyridazin-4-one] to `C=CC(=O)N1CCC[C@@H](c2cn(-c3ccc(Oc4cccc(F)c4F)cc3)c3c(N)n[nH]c(=O)c23)C1` [Example 32, (S)-3-(1-acryloylpiperidin-3-yl)-7-amino-1-(4-(2,3-difluorophenoxy)phenyl)-1,5-dihydro-4H-pyrrolo[2,3-d]pyridazin-4-one], the pIC50 rises from 6.59 to 7.24 (0.65 log units). The second is the more potent here.

First: C=CC(=O)N1CCC[C@@H](c2cn(-c3ccc(Oc4ccccc4F)cc3)c3c(N)n[nH]c(=O)c23)C1 [Example 29, (S)-3-(1-acryloylpiperidin-3-yl)-7-amino-1-(4-(2-fluorophenoxy)phenyl)-1,5-dihydro-4H-pyrrolo [2,3-d]pyridazin-4-one]
Second: C=CC(=O)N1CCC[C@@H](c2cn(-c3ccc(Oc4c(F)cccc4F)cc3)c3c(N)n[nH]c(=O)c23)C1 [Example 33, (S)-3-(1-acryloylpiperidin-3-yl)-7-amino-1-(4-(2,6-difluorophenoxy)phenyl)-1,5-dihydro-4H-pyrrolo[2,3-d]pyridazin-4-one]
The pIC50 of the first is 0.68 log units higher: 7.34 for the first, 6.66 for the second. The first is the more potent here.

`C=CC(=O)N1CCC[C@@H](c2cn(-c3ccc(Oc4cccc(F)c4)cc3)c3c(N)n[nH]c(=O)c23)C1` [Example 30, (S)-3-(1-acryloylpiperidin-3-yl)-7-amino-1-(4-(3-fluorophenoxy)phenyl)-1,5-dihydro-4H-pyrrolo [2,3-d]pyridazin-4-one] and `C=CC(=O)N1CCC[C@@H](c2cn(-c3ccc(Oc4ccc(F)cc4)cc3)c3c(N)n[nH]c(=O)c23)C1` [Example 31, (S)-3-(1-acryloylpiperidin-3-yl)-7-amino-1-(4-(4-fluorophenoxy)phenyl)-1,5-dihydro-4H-pyrrolo [2,3-d]pyridazin-4-one] are within 0.2 log units of each other in pIC50: 6.89 for the first, 6.78 for the second.

— patent US10800785B2, “Substituted pyrrolo[2,3-d]pyridazin-4-ones and pyrazolo[3,4-d]pyridazin-4-ones as protein kinase inhibitors” (Shanghai Fochon Pharmaceutical Co., Ltd., priority 2016, dated 2020)
